Source: ChEMBL document CHEMBL5212743, “Selectivity Literature for EUbOPEN Chemogenomics Library wave 3” (2023)

Tests used:
[1] = target: Tyrosine-protein kinase BAZ1B (Homo sapiens) (UniProt Q9UIG0); experiment: Selectivity interaction (Bromodomain panel (DSF assay)) EUB0000164c BAZ1B
Histamine H1 receptor = Histamine H1 receptor (Homo sapiens, UniProt P35367); experiment: Selectivity interaction (Receptor panel (Novartis) ) EUB0000164c HRH1
[2] = target: Muscarinic acetylcholine receptor M1 (Homo sapiens, UniProt P11229); experiment: Selectivity interaction (Receptor panel (Novartis) ) EUB0000164c CHRM1
D(3) dopamine receptor [3] = target: T1, D(3) dopamine receptor (Homo sapiens, UniProt P35462); experiment: Selectivity interaction (NIBR principial panel (12 GPCRs, 3 nuclear receptors, 3 transporters, and 7 other enzymes)) EUB0000254b DRD3
T1 sequence (P35462 whole entry): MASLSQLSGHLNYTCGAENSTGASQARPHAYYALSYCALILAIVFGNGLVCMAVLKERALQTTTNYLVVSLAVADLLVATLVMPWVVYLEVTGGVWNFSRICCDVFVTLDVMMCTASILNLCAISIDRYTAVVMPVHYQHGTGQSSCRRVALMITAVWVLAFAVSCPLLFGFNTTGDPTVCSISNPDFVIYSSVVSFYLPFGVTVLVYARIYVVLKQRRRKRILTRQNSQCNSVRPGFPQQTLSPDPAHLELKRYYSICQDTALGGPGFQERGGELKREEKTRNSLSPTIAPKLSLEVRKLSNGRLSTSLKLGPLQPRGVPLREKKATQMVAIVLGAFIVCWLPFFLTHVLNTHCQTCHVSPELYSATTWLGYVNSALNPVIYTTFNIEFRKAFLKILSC

[4] = target: Prostaglandin G/H synthase 2 (Homo sapiens, UniProt P35354); experiment: Selectivity interaction (NIBR principial panel (12 GPCRs, 3 nuclear receptors, 3 transporters, and 7 other enzymes)) EUB0000254b PTGS2
Acetylcholinesterase = Acetylcholinesterase (Homo sapiens, UniProt P22303); experiment: Selectivity interaction (NIBR principial panel (12 GPCRs, 3 nuclear receptors, 3 transporters, and 7 other enzymes)) EUB0000254b ACHE
Acetylcholinesterase, sequence (P22303 whole entry): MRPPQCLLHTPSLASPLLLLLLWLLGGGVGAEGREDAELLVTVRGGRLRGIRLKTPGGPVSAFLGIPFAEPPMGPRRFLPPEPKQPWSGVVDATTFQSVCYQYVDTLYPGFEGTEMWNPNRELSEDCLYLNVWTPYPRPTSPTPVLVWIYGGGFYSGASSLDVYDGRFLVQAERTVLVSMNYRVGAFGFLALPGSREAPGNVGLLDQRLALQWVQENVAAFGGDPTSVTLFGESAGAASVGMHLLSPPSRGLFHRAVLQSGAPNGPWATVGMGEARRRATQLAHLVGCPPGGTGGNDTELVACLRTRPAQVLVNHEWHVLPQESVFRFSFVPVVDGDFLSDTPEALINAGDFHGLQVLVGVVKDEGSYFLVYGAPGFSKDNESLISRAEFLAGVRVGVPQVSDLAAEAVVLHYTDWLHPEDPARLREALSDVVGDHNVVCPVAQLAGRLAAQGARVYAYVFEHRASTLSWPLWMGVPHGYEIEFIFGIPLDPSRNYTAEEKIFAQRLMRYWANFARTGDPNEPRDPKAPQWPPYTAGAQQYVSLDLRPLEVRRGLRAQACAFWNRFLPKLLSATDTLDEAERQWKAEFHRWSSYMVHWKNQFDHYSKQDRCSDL

[5] = target: Transcription initiation factor TFIID subunit 1 (Homo sapiens, UniProt P21675); experiment: Selectivity interaction (Bromodomain panel (DSF assay)) EUB0000201c TAF1
[6] = target: T2, Nucleosome-remodeling factor subunit BPTF (Homo sapiens, UniProt Q12830); experiment: Selectivity interaction (Bromodomain panel (DSF assay)) EUB0000201c BPTF
[7] = target: T3, Bromodomain-containing protein 7 (Homo sapiens) (UniProt Q9NPI1); experiment: Selectivity interaction (Bromodomain panel (DSF assay)) EUB0000201c BRD7
T3 sequence (whole entry): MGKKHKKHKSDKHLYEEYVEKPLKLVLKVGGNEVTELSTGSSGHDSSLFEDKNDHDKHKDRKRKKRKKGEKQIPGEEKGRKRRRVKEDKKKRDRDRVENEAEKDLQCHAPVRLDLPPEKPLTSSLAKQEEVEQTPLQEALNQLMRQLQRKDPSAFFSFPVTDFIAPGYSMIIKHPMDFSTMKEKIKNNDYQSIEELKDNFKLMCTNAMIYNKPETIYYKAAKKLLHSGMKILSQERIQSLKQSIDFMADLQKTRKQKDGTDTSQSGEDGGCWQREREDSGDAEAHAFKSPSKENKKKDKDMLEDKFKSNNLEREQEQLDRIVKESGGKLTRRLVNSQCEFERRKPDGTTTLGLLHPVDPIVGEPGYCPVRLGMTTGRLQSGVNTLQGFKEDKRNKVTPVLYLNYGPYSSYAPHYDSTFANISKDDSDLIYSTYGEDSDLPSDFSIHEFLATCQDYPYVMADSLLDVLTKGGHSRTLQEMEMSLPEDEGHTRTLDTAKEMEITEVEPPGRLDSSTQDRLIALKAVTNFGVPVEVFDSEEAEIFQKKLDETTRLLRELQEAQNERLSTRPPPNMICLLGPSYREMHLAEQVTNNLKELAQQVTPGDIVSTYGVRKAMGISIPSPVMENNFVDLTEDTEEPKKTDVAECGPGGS

[8] = target: T4, Chromatin remodeling regulator CECR2 (Homo sapiens, UniProt Q9BXF3); experiment: Selectivity interaction (Cellular FRAP assay) EUB0000201c CECR2
Target sequence in this assay (Q9BXF3 whole entry): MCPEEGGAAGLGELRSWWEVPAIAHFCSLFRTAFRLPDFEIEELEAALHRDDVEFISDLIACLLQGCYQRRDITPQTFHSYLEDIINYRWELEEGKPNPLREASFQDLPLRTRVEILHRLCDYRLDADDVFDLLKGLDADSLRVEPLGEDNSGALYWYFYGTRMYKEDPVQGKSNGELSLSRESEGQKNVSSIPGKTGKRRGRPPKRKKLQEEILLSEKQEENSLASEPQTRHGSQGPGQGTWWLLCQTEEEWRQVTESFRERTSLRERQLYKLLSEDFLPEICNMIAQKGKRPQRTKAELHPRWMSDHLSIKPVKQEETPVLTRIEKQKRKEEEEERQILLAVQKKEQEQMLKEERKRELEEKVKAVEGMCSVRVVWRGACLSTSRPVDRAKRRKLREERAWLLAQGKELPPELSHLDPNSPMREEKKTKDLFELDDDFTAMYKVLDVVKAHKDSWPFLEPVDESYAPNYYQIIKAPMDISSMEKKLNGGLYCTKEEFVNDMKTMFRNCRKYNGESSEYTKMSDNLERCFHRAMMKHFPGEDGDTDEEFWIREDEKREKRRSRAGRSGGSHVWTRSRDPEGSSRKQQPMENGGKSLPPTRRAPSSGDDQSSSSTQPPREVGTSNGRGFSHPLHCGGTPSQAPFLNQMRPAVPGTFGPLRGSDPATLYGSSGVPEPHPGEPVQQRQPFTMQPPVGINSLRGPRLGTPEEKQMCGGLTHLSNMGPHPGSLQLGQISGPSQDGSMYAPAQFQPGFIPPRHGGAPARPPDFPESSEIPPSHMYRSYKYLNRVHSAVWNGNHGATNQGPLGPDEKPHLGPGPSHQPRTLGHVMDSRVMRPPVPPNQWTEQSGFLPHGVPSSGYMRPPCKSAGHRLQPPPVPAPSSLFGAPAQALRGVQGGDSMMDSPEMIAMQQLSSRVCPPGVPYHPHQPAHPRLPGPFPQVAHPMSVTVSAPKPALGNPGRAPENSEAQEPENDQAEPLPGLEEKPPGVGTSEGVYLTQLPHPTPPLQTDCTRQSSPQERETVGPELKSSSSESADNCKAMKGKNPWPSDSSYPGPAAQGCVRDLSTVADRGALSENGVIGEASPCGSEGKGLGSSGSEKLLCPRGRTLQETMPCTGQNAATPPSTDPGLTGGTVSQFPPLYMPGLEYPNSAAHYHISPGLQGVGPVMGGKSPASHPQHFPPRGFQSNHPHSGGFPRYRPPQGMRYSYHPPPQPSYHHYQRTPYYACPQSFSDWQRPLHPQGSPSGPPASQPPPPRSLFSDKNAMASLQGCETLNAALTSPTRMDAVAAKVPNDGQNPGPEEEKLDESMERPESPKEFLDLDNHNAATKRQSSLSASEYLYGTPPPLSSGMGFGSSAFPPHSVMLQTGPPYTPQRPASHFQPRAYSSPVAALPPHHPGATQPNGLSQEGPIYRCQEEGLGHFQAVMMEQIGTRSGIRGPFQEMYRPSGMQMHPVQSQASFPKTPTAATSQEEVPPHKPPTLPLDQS

[9] = target: T4, Chromatin remodeling regulator CECR2; experiment: (§1) Selectivity interaction (Bromodomain panel (DSF assay)) EUB0000201c CECR2
Target sequence in this assay (Q9BXF3 whole entry, looked up): as the sequence (Q9BXF3 whole entry) above

[10] = target: SWI/SNF-related matrix-associated actin-dependent regulator of chromatin subfamily A member 4 (Homo sapiens) (UniProt P51532); experiment: Selectivity interaction (Bromodomain panel (DSF assay)) EUB0000201c SMARCA4
[11] = target: Bromodomain-containing protein 4 (Homo sapiens, UniProt O60885); experiment: Selectivity interaction (Bromodomain panel (DSF assay)) EUB0000201c BRD4
[12] = target: T4, Chromatin remodeling regulator CECR2; experiment: as §1; remark: listed apart in the source
Target sequence in this assay (Q9BXF3 whole entry, looked up): as the sequence (Q9BXF3 whole entry) above

Adenosine receptor A3 = target: T5, Adenosine receptor A3 (Homo sapiens, UniProt P0DMS8); experiment: Selectivity interaction (NIBR principial panel (12 GPCRs, 3 nuclear receptors, 3 transporters, and 7 other enzymes)) EUB0000253b ADORA3
T5 sequence (P0DMS8 whole entry): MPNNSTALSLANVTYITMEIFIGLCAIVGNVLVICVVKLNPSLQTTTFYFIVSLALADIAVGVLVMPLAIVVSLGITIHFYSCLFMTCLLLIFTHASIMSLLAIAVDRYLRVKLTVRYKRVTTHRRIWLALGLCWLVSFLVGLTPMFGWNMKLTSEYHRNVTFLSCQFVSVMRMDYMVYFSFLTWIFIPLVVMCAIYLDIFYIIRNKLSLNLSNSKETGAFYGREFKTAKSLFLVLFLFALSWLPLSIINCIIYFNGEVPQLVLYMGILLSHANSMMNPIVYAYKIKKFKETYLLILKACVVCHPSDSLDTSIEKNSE

D(3) dopamine receptor [13] = target: T1, D(3) dopamine receptor; experiment: Selectivity interaction (NIBR principial panel (12 GPCRs, 3 nuclear receptors, 3 transporters, and 7 other enzymes)) EUB0000253b DRD3
Histamine H3 receptor = Histamine H3 receptor (Homo sapiens, UniProt Q9Y5N1); experiment: Selectivity interaction (NIBR principial panel (12 GPCRs, 3 nuclear receptors, 3 transporters, and 7 other enzymes)) EUB0000253b HRH3
Histamine H3 receptor, sequence (Q9Y5N1 whole entry): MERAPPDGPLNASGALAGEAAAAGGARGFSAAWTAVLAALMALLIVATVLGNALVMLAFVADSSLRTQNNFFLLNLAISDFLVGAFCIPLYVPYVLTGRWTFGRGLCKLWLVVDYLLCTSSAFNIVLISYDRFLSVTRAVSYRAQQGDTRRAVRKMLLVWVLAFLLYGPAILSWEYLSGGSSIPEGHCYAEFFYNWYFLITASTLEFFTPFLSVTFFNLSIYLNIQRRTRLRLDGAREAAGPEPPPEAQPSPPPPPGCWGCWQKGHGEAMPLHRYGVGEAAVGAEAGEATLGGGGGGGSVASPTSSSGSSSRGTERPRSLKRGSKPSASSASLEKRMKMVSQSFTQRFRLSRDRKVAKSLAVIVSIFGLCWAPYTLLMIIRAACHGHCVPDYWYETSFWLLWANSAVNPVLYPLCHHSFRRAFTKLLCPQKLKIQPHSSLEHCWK

[14] = target: T6, Histone acetyltransferase KAT2A (Homo sapiens, UniProt Q92830); experiment: Selectivity interaction (NanoBRET assay (HEK293T cells)) EUB0000253b KAT2A
T6 sequence (Q92830 whole entry): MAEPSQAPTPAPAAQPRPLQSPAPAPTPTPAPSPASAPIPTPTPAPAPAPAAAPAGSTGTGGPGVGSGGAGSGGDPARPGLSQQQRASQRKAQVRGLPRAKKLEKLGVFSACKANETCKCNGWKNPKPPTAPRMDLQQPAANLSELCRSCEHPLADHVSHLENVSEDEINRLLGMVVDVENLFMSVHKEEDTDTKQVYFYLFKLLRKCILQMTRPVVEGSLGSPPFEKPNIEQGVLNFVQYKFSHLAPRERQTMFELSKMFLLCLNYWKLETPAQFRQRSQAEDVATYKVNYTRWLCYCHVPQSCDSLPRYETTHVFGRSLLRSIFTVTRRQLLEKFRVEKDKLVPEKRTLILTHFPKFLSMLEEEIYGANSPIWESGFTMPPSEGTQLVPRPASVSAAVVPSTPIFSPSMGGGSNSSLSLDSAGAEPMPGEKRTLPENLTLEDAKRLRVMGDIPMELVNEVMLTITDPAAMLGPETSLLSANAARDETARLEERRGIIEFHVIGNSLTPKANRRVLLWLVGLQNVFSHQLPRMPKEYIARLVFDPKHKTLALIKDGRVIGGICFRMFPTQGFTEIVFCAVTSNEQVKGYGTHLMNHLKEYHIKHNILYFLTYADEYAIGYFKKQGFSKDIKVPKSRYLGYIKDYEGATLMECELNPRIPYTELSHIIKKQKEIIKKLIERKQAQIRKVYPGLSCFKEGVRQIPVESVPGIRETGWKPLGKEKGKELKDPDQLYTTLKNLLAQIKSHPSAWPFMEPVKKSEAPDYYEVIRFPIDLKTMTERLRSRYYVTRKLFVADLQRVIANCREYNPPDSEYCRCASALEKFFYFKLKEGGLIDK

[15] = target: T4, Chromatin remodeling regulator CECR2; experiment: Selectivity interaction (NanoBRET assay (HEK293T cells)) EUB0000253b CECR2
Target sequence in this assay (Q9BXF3 whole entry): as the sequence (Q9BXF3 whole entry) above

[16] = target: T4, Chromatin remodeling regulator CECR2; experiment: Selectivity interaction (BROMOscan™ panel (DiscoverX)) EUB0000253b CECR2
Target sequence in this assay (Q9BXF3 whole entry): as above

[17] = target: T7, Histone acetyltransferase KAT2B (Homo sapiens, UniProt Q92831); experiment: Selectivity interaction (Bromodomain panel (DSF assay)) EUB0000253b KAT2B
Target sequence in this assay (Q92831 whole entry, looked up): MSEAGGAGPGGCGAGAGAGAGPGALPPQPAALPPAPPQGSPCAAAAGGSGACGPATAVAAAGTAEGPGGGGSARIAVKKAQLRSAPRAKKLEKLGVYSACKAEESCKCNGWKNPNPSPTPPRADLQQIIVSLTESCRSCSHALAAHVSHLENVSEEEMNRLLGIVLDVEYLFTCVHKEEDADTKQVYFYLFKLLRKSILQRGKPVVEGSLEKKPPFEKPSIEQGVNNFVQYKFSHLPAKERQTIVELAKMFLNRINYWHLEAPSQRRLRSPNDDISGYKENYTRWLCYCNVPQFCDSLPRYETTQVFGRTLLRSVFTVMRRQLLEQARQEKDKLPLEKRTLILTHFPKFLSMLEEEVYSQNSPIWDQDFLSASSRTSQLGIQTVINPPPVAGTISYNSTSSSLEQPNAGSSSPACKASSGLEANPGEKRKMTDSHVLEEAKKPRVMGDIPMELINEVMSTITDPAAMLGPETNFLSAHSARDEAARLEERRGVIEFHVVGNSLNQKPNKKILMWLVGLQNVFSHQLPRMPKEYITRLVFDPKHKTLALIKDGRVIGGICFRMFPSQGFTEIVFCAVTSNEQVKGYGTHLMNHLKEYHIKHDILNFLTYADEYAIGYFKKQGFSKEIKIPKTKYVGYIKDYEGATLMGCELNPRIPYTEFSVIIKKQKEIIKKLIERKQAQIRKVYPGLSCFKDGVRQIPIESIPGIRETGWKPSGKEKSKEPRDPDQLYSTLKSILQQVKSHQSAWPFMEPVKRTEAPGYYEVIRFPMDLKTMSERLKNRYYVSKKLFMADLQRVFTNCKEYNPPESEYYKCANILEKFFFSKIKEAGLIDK

[18] = target: T7, Histone acetyltransferase KAT2B; experiment: Selectivity interaction (BROMOscan™ panel (DiscoverX)) EUB0000253b KAT2B
Target sequence in this assay (Q92831 whole entry): as the sequence (Q92831 whole entry, looked up) above

[19] = target: T4, Chromatin remodeling regulator CECR2; experiment: Selectivity interaction (Bromodomain panel (DSF assay)) EUB0000253b CECR2
Target sequence in this assay (Q9BXF3 whole entry, looked up): as the sequence (Q9BXF3 whole entry) above

[20] = target: T7, Histone acetyltransferase KAT2B; experiment: Selectivity interaction (NanoBRET assay (HEK293T cells)) EUB0000253b KAT2B
Target sequence in this assay (Q92831 whole entry): as the sequence (Q92831 whole entry, looked up) above

[21] = target: T2, Nucleosome-remodeling factor subunit BPTF
[22] = target: T6, Histone acetyltransferase KAT2A; experiment: Selectivity interaction (BROMOscan™ panel (DiscoverX)) EUB0000253b KAT2A
[23] = target: T2, Nucleosome-remodeling factor subunit BPTF; remark: listed apart in the source
[24] = target: T3, Bromodomain-containing protein 7 (Homo sapiens); experiment: Selectivity interaction (Bromodomain panel (DSF assay)) EUB0000253b BRD7

CC(C)NC(=O)N1CC[C@H](NC2=Nc3cc(F)ccc3N(CC(F)F)c3ccc(Cl)cc32)C1
dTm [1]: 0.7 K
IC50 (Histamine H1 receptor): 13 µM
IC50 [2]: 13 µM

Cc1c(Nc2ccc(S(=O)(=O)N3CCN(C)CC3)cc2F)nc2ccc(Nc3cnn(C4CC4)c3)cn2c1=O
IC50 (D(3) dopamine receptor [3]): 0.95 µM
IC50 [4]: 0.8 µM
IC50 (Acetylcholinesterase): 5.5 µM

CCCS(=O)(=O)c1nc(NC2CC2)cc(-c2ccc3c(ccn3C3CC(C)(C)NC(C)(C)C3)c2)n1
dTm [5]: < 2 K
dTm [6]: < 2 K
dTm [7]: < 2 K
EC50 [8]: 0.1 µM
dTm [9]: 15.5 K
dTm [10]: < 2 K
dTm [11]: < 2 K
dTm [12]: 12.5 K

Cc1c(Nc2ccc(S(=O)(=O)N3CCN(C)CC3)cc2F)nc2ccc(-c3cnn(C4CC4)c3)cn2c1=O
IC50 (Adenosine receptor A3): 4.9 µM
IC50 (D(3) dopamine receptor [13]): 3.5 µM
IC50 (Histamine H3 receptor): 4 µM
IC50 [14]: > 10 µM
IC50 [15]: > 10 µM
Kd [16]: 0.066 µM
dTm [17]: 1.53 K
Kd [18]: 0.074 µM
dTm [19]: 2.48 K
IC50 [20]: > 10 µM
IC50 [21]: 0.03 µM
Kd [22]: 0.062 µM
dTm [23]: 6.16 K
dTm [24]: 1.95 K
